# Assay results published in ChEMBL document CHEMBL4229557, “Synthesis and SAR of new isoxazole-triazole bis-heterocyclic compounds as analogues of natural lignans with antiparasitic activity” (Bioorg Med Chem, 2018).
# Active and inactive are the calls of the source. The rule behind the calls is not given here.
# How the values were obtained:
# Trypanosoma cruzi [1] = experiment: Growth inhibition of Trypanosoma cruzi Tulahuen amastigote forms infected in human THP1 cells at 100 uM after 72 hrs by beta-galactosidase reporter gene assay relative to control; type: functional; details: THP-1, 72 h, read-out: GI
# Trypanosoma cruzi [2] = experiment: Growth inhibition of Trypanosoma cruzi Tulahuen amastigote forms infected in human THP1 cells after 72 hrs by beta-galactosidase reporter gene assay; type: functional
# [3] = Cytotoxicity against human THP1 cells after 72 hrs by MTT assay; type: cell-based; details: THP-1 cells
# [4] = Selectivity index, ratio of CC50 for human THP1 cells to GI50 for Trypanosoma cruzi Tulahuen amastigote forms infected in human THP1 cells; type: toxicity, cell-based; details: read-out: Selectivity Index
# Leishmania amazonensis [5] = experiment: Growth inhibition of Leishmania amazonensis MHOM/BR/77/LTB0016 amastigote forms expressing beta-galactosidase infected in human THP1 cells at 100 uM by colorimetrc assay relative to control; type: functional; details: for inhibition of growth at 100 µM: MHOM/BR/77/LTB0016, THP-1, read-out: GI
# [6] = target: Trypanothione reductase (Trypanosoma cruzi) (UniProt P28593); experiment: Inhibition of Trypanosoma cruzi Trypanothione reductase expressed in Escherichia coli BL21(DE3) at 100 uM using T(S)2 as substrate incubated for 30 mins measured for 30 mins in presence of NADPH by DTNB reagent based assay relative to control
# Sequence of Trypanothione reductase (Trypanosoma cruzi) (P28593 whole entry, looked up): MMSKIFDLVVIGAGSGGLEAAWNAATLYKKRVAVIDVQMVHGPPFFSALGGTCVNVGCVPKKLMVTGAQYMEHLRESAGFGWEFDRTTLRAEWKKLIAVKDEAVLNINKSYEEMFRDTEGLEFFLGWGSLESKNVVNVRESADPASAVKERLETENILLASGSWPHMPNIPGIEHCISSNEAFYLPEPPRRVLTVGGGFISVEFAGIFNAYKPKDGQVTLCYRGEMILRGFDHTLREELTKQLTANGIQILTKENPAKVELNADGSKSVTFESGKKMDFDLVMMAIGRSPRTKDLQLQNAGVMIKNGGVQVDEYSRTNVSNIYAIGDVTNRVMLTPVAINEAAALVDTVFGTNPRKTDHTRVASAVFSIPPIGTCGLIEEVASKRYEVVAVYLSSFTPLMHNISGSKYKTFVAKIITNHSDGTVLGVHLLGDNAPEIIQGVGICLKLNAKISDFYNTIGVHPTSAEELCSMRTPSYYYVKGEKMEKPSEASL
# Leishmania amazonensis [7] = experiment: Growth inhibition of Leishmania amazonensis MHOM/BR/77/LTB0016 amastigote forms expressing beta-galactosidase infected in human THP1 cells at 2 uM by colorimetrc assay relative to control; type: functional; details: MHOM/BR/77/LTB0016, THP-1, read-out: GI
# Trypanosoma cruzi [8] = experiment: Growth inhibition of Trypanosoma cruzi Tulahuen amastigote forms infected in human THP1 cells at 20 uM after 72 hrs by beta-galactosidase reporter gene assay relative to control; type: functional; details: THP-1, 72 h, read-out: GI
Structure (SMILES),"GI50 (Trypanosoma cruzi [2]; THP-1, 72 h)",inhibition of growth at 100 µM (Trypanosoma cruzi [1]),growth inhibition (GI) (Leishmania amazonensis [5]),other results
OCc1ccc(-c2cn(Cc3cc(-c4ccccc4)no3)nn2)cc1,,0%,inactive,GI50 (Trypanosoma cruzi [2]): inactive
C[C@@H]1[C@H](O)[C@@H](C)/C=C/C=C/C=C/C=C/C=C/C=C/C=C/[C@H](O[C@@H]2O[C@H](C)[C@@H](O)[C@H](N)[C@@H]2O)C[C@@H]2O[C@](O)(C[C@@H](O)C[C@@H](O)[C@H](O)CC[C@@H](O)C[C@@H](O)CC(=O)O[C@H]1C)C[C@H](O)[C@H]2C(=O)O [AMPHOTERICIN B],,,,inhibition of growth at 2 µM (Leishmania amazonensis [7]): 96.5%
COc1ccc(-c2cc(Cn3cc(-c4ccccc4)nn3)on2)cc1OC,> 100 µM,12.2%,inactive,
COc1ccccc1-c1cn(Cc2cc(-c3ccccc3)no2)nn1,> 100 µM,12.4%,inactive,
CCCCCc1ccc(-c2cn(Cc3cc(-c4ccccc4)no3)nn2)cc1,,0%,inactive,GI50 (Trypanosoma cruzi [2]): inactive
Cc1ccc(-c2cn(Cc3cc(-c4ccccc4)no3)nn2)cc1,> 100 µM,45.2%,inactive,
COc1ccc(-c2cc(Cn3cc(-c4cc(C)ccc4C)nn3)on2)cc1OC,> 100 µM,4%,inactive,
COc1ccc(-c2cn(Cc3cc(-c4ccc(OC)c(OC)c4)no3)nn2)c(C)c1,> 100 µM,13.6%,inactive,
Fc1ccc(-c2cn(Cc3cc(-c4ccccc4)no3)nn2)cc1,,0%,inactive,GI50 (Trypanosoma cruzi [2]): inactive
COc1ccc(-c2cc(Cn3cc(-c4ccccc4OC)nn3)on2)cc1OC,> 100 µM,43.7%,inactive,
Nc1ccc(-c2cn(Cc3cc(-c4ccccc4)no3)nn2)cc1,,0%,inactive,GI50 (Trypanosoma cruzi [2]): inactive
FC(F)(F)Oc1ccc(-c2cn(Cc3cc(-c4ccccc4)no3)nn2)cc1,> 100 µM,28.7%,inactive,
Cc1ccc(C)c(-c2cn(Cc3cc(-c4ccccc4)no3)nn2)c1,,0%,inactive,GI50 (Trypanosoma cruzi [2]): inactive
COc1ccc(-c2cc(Cn3cc(-c4ccc(CO)cc4)nn3)on2)cc1OC,> 100 µM,43.4%,inactive,
COc1ccc2cc(-c3cn(Cc4cc(-c5ccccc5)no4)nn3)ccc2c1,> 100 µM,43.1%,inactive,
COc1ccc(-c2cn(Cc3cc(-c4ccccc4)no3)nn2)c(C)c1,> 100 µM,18.6%,inactive,
CCCCCc1ccc(-c2cn(Cc3cc(-c4ccc(OC)cc4)no3)nn2)cc1,> 100 µM,13.4%,inactive,
COc1ccc(-c2cn(Cc3cc(-c4ccc5c(c4)OCO5)no3)nn2)cc1,> 100 µM,9.9%,,inhibition of growth at 100 µM (Leishmania amazonensis [5]): 2.8%
FC(F)(F)Oc1ccc(-c2cn(Cc3cc(-c4ccc5c(c4)OCO5)no3)nn2)cc1,> 100 µM,26.8%,inactive,
COc1ccc(-c2cc(Cn3cc(-c4ccc([N+](=O)[O-])cc4)nn3)on2)cc1OC,> 100 µM,37.8%,inactive,
COc1ccc2cc(-c3cn(Cc4cc(-c5ccc(OC)c(OC)c5)no4)nn3)ccc2c1,> 100 µM,26.2%,inactive,
COc1ccc(-c2cc(Cn3cc(-c4ccc(OC(F)(F)F)cc4)nn3)on2)cc1,> 100 µM,26%,inactive,
CN(C)c1ccc(-c2cn(Cc3cc(-c4ccccc4)no3)nn2)cc1,> 100 µM,32.6%,inactive,
COc1ccc(-c2cc(Cn3cc(-c4ccc(N)cc4)nn3)on2)cc1OC,> 100 µM,42.8%,inactive,
Cc1cc(C)c(-c2cn(Cc3cc(-c4ccc5c(c4)OCO5)no3)nn2)cc1C,> 100 µM,13.4%,inactive,
c1ccc(-c2cn(Cc3cc(-c4ccccc4)no3)nn2)cc1,> 100 µM,33.7%,inactive,
O=[N+]([O-])c1ccc(-c2cn(Cc3cc(-c4ccccc4)no3)nn2)cc1,> 100 µM,46.9%,inactive,
COc1ccc(-c2cc(Cn3cc(-c4ccc(N(C)C)cc4)nn3)on2)cc1OC,> 100 µM,33.9%,inactive,
COc1ccc(-c2cn(Cc3cc(-c4ccccc4)no3)nn2)cc1,> 100 µM,43.3%,inactive,

# Second part, led by results:
"GI50 (Trypanosoma cruzi [2]; THP-1, 72 h)",Structure (SMILES),inhibition of growth at 100 µM (Trypanosoma cruzi [1]),growth inhibition (GI) (Leishmania amazonensis [5]),other results
22.7 µM,COc1ccc(-c2cn(Cc3cc(-c4ccc(OC)c(OC)c4)no3)nn2)cc1,81.9%,inactive,CC50 at 72 h [3]: > 500 µM; selectivity ratio [4]: > 22; inhibition [6]: 9.6%
> 100 µM,COc1ccc(-c2cc(Cn3cc(-c4ccc(C)cc4)nn3)on2)cc1OC,7.6%,inactive,
> 100 µM,CCCCCc1ccc(-c2cn(Cc3cc(-c4ccc5c(c4)OCO5)no3)nn2)cc1,48.9%,,inhibition of growth at 100 µM (Leishmania amazonensis [5]): 1.7%
> 100 µM,COc1ccc(-c2cn(Cc3cc(-c4ccc(OC)cc4)no3)nn2)cc1,43.2%,inactive,
> 100 µM,COc1ccc(-c2cc(Cn3cc(-c4cc(C)c(C)cc4C)nn3)on2)cc1,33.4%,inactive,
> 100 µM,COc1ccc(-c2cc(Cn3cc(-c4ccc(F)cc4)nn3)on2)cc1OC,32%,inactive,
> 100 µM,COc1ccc(-c2cc(Cn3cc(-c4cc(OC)cc(OC)c4)nn3)on2)cc1,3.6%,inactive,
14 µM,CN(C)CCCN1c2ccccc2CCc2ccc(Cl)cc21 [CLOMIPRAMINE],,,
55.2 µM,COc1ccc(-c2cc(Cn3cc(-c4cc(C)c(C)cc4C)nn3)on2)cc1OC,89.6%,inactive,CC50 at 72 h [3]: > 500 µM; selectivity ratio [4]: > 9; inhibition [6]: 9%
10.2 µM,O=C(Cn1ccnc1[N+](=O)[O-])NCc1ccccc1 [BENZNIDAZOLE],,,inhibition of growth at 20 µM (Trypanosoma cruzi [8]): 93%; CC50 at 72 h [3]: > 500 µM; selectivity ratio [4]: > 49
88.4 µM,Cc1cc(C)c(-c2cn(Cc3cc(-c4ccccc4)no3)nn2)cc1C,89.5%,inactive,CC50 at 72 h [3]: 200 µM; selectivity ratio [4]: 2.3; inhibition [6]: 0%
30.3 µM,COc1cc(OC)cc(-c2cn(Cc3cc(-c4ccc(OC)c(OC)c4)no3)nn2)c1,74.8%,inactive,CC50 at 72 h [3]: > 500 µM; selectivity ratio [4]: > 16.5; inhibition [6]: 8.9%
54.5 µM,COc1cc(OC)cc(-c2cn(Cc3cc(-c4ccccc4)no3)nn2)c1,95.3%,inactive,CC50 at 72 h [3]: 143 µM; selectivity ratio [4]: 2.6; inhibition [6]: 0%
12.2 µM,CCCCCc1ccc(-c2cn(Cc3cc(-c4ccc(OC)c(OC)c4)no3)nn2)cc1,80.2%,inactive,CC50 at 72 h [3]: > 500 µM; selectivity ratio [4]: > 41; inhibition [6]: 0%
40.1 µM,COc1ccc(-c2cc(Cn3cc(-c4ccc(OC(F)(F)F)cc4)nn3)on2)cc1OC,78.5%,inactive,CC50 at 72 h [3]: 227 µM; selectivity ratio [4]: 5.7; inhibition [6]: 0%
49.9 µM,COc1cc(OC)cc(-c2cn(Cc3cc(-c4ccc5c(c4)OCO5)no3)nn2)c1,87.9%,inactive,CC50 at 72 h [3]: 208 µM; selectivity ratio [4]: 4.2; inhibition [6]: 0%
